US4677100A, “Cephalosporin derivatives” (Banyu Pharmaceutical Co., Ltd., priority 1984, dated 1987)
Converted amounts (≈) assume the structure as drawn.

How the values were obtained:
P. maltophilia IID 1275 = assay: MIC, agar plate dilution method; assay type: cell-based, Pseudomonas maltophilia; conditions: for MIC: Stenotrophomonas maltophilia, IID1275, P. maltophilia IID 1275, 10^6 CFU/ml, Sensitivity Disk Agar, read-out: Minimum Inhibitory Concentration; for antibacterial activity relative to the compound of Reference Example: Pseudomonas maltophilia resistant to all cephalosporins
Protocol: (§1) The minimum inhibitory concentrations (MIC: μg/ml) of the compounds of the present invention against various microorganisms were measured by an agar plate dilution method (inoculum size: 10^6 CFU/ml) by using Sensitivity Disk Agar (Nissui) in comparison with Cefotaxime and Ceftazidime as comparative compounds.

P. cepacia 23 = assay: MIC, agar plate dilution method; assay type: cell-based, Pseudomonas cepacia; conditions: for MIC: Burkholderia cepacia, P. cepacia 23, 10^6 CFU/ml, Sensitivity Disk Agar, read-out: Minimum Inhibitory Concentration; for antibacterial activity relative to the compound of Reference Example: Pseudomonas cepacia 23
Protocol: as §1

P. aeruginosa AKR17 = assay: MIC, agar plate dilution method; assay type: cell-based, Pseudomonas aeruginosa; conditions: for antibacterial activity relative to the compound of Reference Example: Pseudomonas aeruginosa AKR-17, resistant to all cephalosporins including Ceftazidime; for MIC: Pseudomonas aeruginosa, P. aeruginosa AKR17, 10^6 CFU/ml, Sensitivity Disk Agar, read-out: Minimum Inhibitory Concentration
Protocol: as §1

P. aeruginosa AK109 = assay: MIC, agar plate dilution method; assay type: cell-based, Pseudomonas aeruginosa; conditions: for antibacterial activity relative to the compound of Reference Example: Pseudomonas aeruginosa AK109; for MIC: Pseudomonas aeruginosa, P. aeruginosa AK109, 10^6 CFU/ml, Sensitivity Disk Agar, read-out: Minimum Inhibitory Concentration
Protocol: as §1

C. freundii No. 7 = assay: MIC, agar plate dilution method; assay type: cell-based; conditions: Citrobacter freundii; C. freundii No. 7; 10^6 CFU/ml; Sensitivity Disk Agar; read-out: Minimum Inhibitory Concentration
Protocol: as §1

P. vulgaris OB1043 = assay: MIC, agar plate dilution method; assay type: cell-based; conditions: Proteus vulgaris; P. vulgaris OB1043; 10^6 CFU/ml; Sensitivity Disk Agar; read-out: Minimum Inhibitory Concentration
Protocol: as §1

E. coli CSH2 = assay: MIC, agar plate dilution method; assay type: cell-based; conditions: Escherichia coli, 10^6 CFU/ml, Sensitivity Disk Agar, read-out: Minimum Inhibitory Concentration
Protocol: as §1

E. coli CSH = assay: MIC, agar plate dilution method; assay type: cell-based; conditions: Escherichia coli, read-out: Minimum Inhibitory Concentration
Protocol: as §1

E. cloaceae Nek 39 = assay: MIC, agar plate dilution method; assay type: cell-based; conditions: E. cloaceae Nek 39; 10^6 CFU/ml; Sensitivity Disk Agar; read-out: Minimum Inhibitory Concentration
Protocol: as §1

E. coli ML1410/Rte16 = assay: MIC, agar plate dilution method; assay type: cell-based; conditions: Escherichia coli, ML1410/RTE16, read-out: Minimum Inhibitory Concentration
Protocol: as §1

P. mirabilis JY10 = assay: MIC, agar plate dilution method; assay type: cell-based; conditions: Proteus mirabilis; P. mirabilis JY10; 10^6 CFU/ml; Sensitivity Disk Agar; read-out: Minimum Inhibitory Concentration
Protocol: as §1

E. coli C/Rms149 = assay: MIC, agar plate dilution method; assay type: cell-based; conditions: Escherichia coli, read-out: Minimum Inhibitory Concentration
Protocol: as §1

P. vulgaris No. 33 = assay: MIC, agar plate dilution method; assay type: cell-based; conditions: Proteus vulgaris; P. vulgaris No. 33; 10^6 CFU/ml; Sensitivity Disk Agar; read-out: Minimum Inhibitory Concentration
Protocol: as §1

S. aureus JS-1 = assay: MIC, agar plate dilution method; assay type: cell-based; conditions: Staphylococcus aureus, JS1; S. aureus JS-1; 10^6 CFU/ml; Sensitivity Disk Agar; read-out: Minimum Inhibitory Concentration
Protocol: as §1

A. calcoaceticus No. 14 = assay: MIC, agar plate dilution method; assay type: cell-based; conditions: Acinetobacter calcoaceticus; for MIC: A. calcoaceticus No. 14, 10^6 CFU/ml, Sensitivity Disk Agar, read-out: Minimum Inhibitory Concentration
Protocol: as §1

E. coli NIHJJC-2 = assay: MIC, agar plate dilution method; assay type: cell-based; conditions: Escherichia coli, NIHJJC2; E. coli NIHJJC-2; 10^6 CFU/ml; Sensitivity Disk Agar; read-out: Minimum Inhibitory Concentration
Protocol: as §1

S. aureus NIHJJC-1 = assay: MIC, agar plate dilution method; assay type: cell-based; conditions: Staphylococcus aureus, NIHJJC1; S. aureus NIHJJC-1; 10^6 CFU/ml; Sensitivity Disk Agar; read-out: Minimum Inhibitory Concentration
Protocol: as §1

E. coli W3630/Rms212 = assay: MIC, agar plate dilution method; assay type: cell-based; conditions: Escherichia coli, W3630/RMS212, read-out: Minimum Inhibitory Concentration
Protocol: as §1

K. pneumoniae No. 42 = assay: MIC, agar plate dilution method; assay type: cell-based; conditions: Klebsiella pneumoniae; K. pneumoniae No. 42; 10^6 CFU/ml; Sensitivity Disk Agar; read-out: Minimum Inhibitory Concentration
Protocol: as §1

S. marcescens No. 16-2 = assay: MIC, agar plate dilution method; assay type: cell-based; conditions: Serratia marcescens, NO.162; S. marcescens No. 16-2; 10^6 CFU/ml; Sensitivity Disk Agar; read-out: Minimum Inhibitory Concentration
Protocol: as §1

E. coli W3630/Rms213 = assay: MIC, agar plate dilution method; assay type: cell-based; conditions: Escherichia coli, W3630/RMS213, read-out: Minimum Inhibitory Concentration
Protocol: as §1

[1] = test system: Gram-positive bacteria and Gram-negative bacteria; assay: antibacterial activity, general statement; assay type: cell-based; conditions: sensitive and resistant bacteria
Protocol: as §1

SMILES	MIC (P. maltophilia IID 1275)	MIC (P. cepacia 23)	antibacterial activity relative to the compound of Reference Example (P. cepacia 23)	antibacterial activity relative to the compound of Reference Example (P. aeruginosa AKR17)	MIC (P. aeruginosa AKR17)	antibacterial activity relative to the compound of Reference Example (P. aeruginosa AK109)	MIC (P. aeruginosa AK109)	MIC (C. freundii No. 7)	MIC (P. vulgaris OB1043)	MIC (E. coli CSH2)	MIC (E. coli CSH)	MIC (E. cloaceae Nek 39)	MIC (E. coli ML1410/Rte16)	MIC (P. mirabilis JY10)	MIC (E. coli C/Rms149)	MIC (P. vulgaris No. 33)	MIC (S. aureus JS-1)	antibacterial activity relative to the compound of Reference Example (A. calcoaceticus No. 14)	MIC (A. calcoaceticus No. 14)	MIC (E. coli NIHJJC-2)	further results
CCON=C(C(=O)NC1C(=O)N2C(C(=O)[O-])=C(C[N+]3(C)Cc4cc(O)c(O)cc4C3)CSC12)c1csc(N)n1 (centres unmarked) [Ex. 5-D, 7-[(Z)-2-(2-aminothiazol-4-yl)-2-ethoxyiminoacetamido]-3-(5,6-dihydroxy-2-methyl-2-isoindolinium) methyl-3-cephem-4-carboxylate]	25 µg/mL (≈ 43.5 µM)	0.1 µg/mL (≈ 0.174 µM)	at least 32 times	at least 32 times	0.39 µg/mL (≈ 0.679 µM)	at least 16 times	0.1 µg/mL (≈ 0.174 µM)	6.25 µg/mL (≈ 10.9 µM)	0.78 µg/mL (≈ 1.36 µM)	0.1 µg/mL (≈ 0.174 µM)	0.2 µg/mL (≈ 0.348 µM)	≤ 0.05 µg/mL	0.1 µg/mL (≈ 0.174 µM)	0.2 µg/mL (≈ 0.348 µM)	0.1 µg/mL (≈ 0.174 µM)	0.2 µg/mL (≈ 0.348 µM)	12.5 µg/mL (≈ 21.8 µM)	at least 32 times	0.2 µg/mL (≈ 0.348 µM)	≤ 0.05 µg/mL	MIC (S. aureus NIHJJC-1): 3.12 µg/mL (≈ 5.43 µM); MIC (E. coli W3630/Rms212): ≤ 0.05 µg/mL; MIC (K. pneumoniae No. 42): 0.1 µg/mL (≈ 0.174 µM); MIC (S. marcescens No. 16-2): 3.12 µg/mL (≈ 5.43 µM); MIC (E. coli W3630/Rms213): 0.2 µg/mL (≈ 0.348 µM); antibacterial activity (in words) [1]: particularly strong antibacterial activities
CC(C)(ON=C(C(=O)NC1C(=O)N2C(C(=O)[O-])=C(C[N+]3(C)Cc4cc(O)c(O)cc4C3)CSC12)c1csc(N)n1)C(=O)O (centres unmarked) [Ex. 7-E, 7-[(Z)-2-(2-aminothiazol-4-yl)-2-(1-carboxy-1-methylethoxyimino)acetamido]-3-(5,6-dihydroxy-methyl-2-methyl-2-isoindolinium)methyl-3-cephem-4-carboxylate]	3.12 µg/mL (≈ 4.93 µM)	≤ 0.05 µg/mL	at least 32 times	at least 32 times	≤ 0.05 µg/mL	at least 16 times	≤ 0.05 µg/mL	0.78 µg/mL (≈ 1.23 µM)	0.1 µg/mL (≈ 0.158 µM)	≤ 0.05 µg/mL	0.1 µg/mL (≈ 0.158 µM)	≤ 0.05 µg/mL	≤ 0.05 µg/mL	0.1 µg/mL (≈ 0.158 µM)	≤ 0.05 µg/mL	0.2 µg/mL (≈ 0.316 µM)	> 25 µg/mL	at least 32 times	0.1 µg/mL (≈ 0.158 µM)	≤ 0.05 µg/mL	antibacterial activity relative to the compound of Reference Example (P. maltophilia IID 1275): at least twice as strong; MIC (S. aureus NIHJJC-1): 25 µg/mL (≈ 39.5 µM); MIC (E. coli W3630/Rms212): ≤ 0.05 µg/mL; MIC (K. pneumoniae No. 42): ≤ 0.05 µg/mL; MIC (S. marcescens No. 16-2): 0.39 µg/mL (≈ 0.616 µM); MIC (E. coli W3630/Rms213): ≤ 0.05 µg/mL; antibacterial activity (in words) [1]: particularly strong antibacterial activities
C[N+]1(CC2=C(C(=O)[O-])N3C(=O)C(NC(=O)C(=NOCC(=O)O)c4csc(N)n4)C3SC2)Cc2cc(O)c(O)cc2C1 (centres unmarked) [Ex. 8-E, 7-[(Z)-2-(2-aminothiazol-4-yl)-2-carboxymethoxyimino)acetamido]-3-(5,6-dihydroxy-2-methyl-2-isoindolinium)methyl-3-cephem-4-carboxylate]	6.25 µg/mL (≈ 10.3 µM)	≤ 0.05 µg/mL	at least 32 times	at least 32 times	0.2 µg/mL (≈ 0.331 µM)	at least 16 times	≤ 0.05 µg/mL	0.78 µg/mL (≈ 1.29 µM)	0.2 µg/mL (≈ 0.331 µM)	≤ 0.05 µg/mL	0.1 µg/mL (≈ 0.165 µM)	≤ 0.05 µg/mL	≤ 0.05 µg/mL	0.2 µg/mL (≈ 0.331 µM)	≤ 0.05 µg/mL	0.1 µg/mL (≈ 0.165 µM)	> 25 µg/mL	at least 32 times	≤ 0.05 µg/mL	≤ 0.05 µg/mL	antibacterial activity relative to the compound of Reference Example (P. maltophilia IID 1275): at least twice as strong; MIC (S. aureus NIHJJC-1): 12.5 µg/mL (≈ 20.7 µM); MIC (E. coli W3630/Rms212): ≤ 0.05 µg/mL; MIC (K. pneumoniae No. 42): ≤ 0.05 µg/mL; MIC (S. marcescens No. 16-2): 0.78 µg/mL (≈ 1.29 µM); MIC (E. coli W3630/Rms213): ≤ 0.05 µg/mL; antibacterial activity (in words) [1]: particularly strong antibacterial activities
CC(C)ON=C(C(=O)NC1C(=O)N2C(C(=O)[O-])=C(C[N+]3(C)Cc4cc(O)c(O)cc4C3)CSC12)c1csc(N)n1 (centres unmarked) [Ex. 9-C, 7-[(Z)-2-(2-aminothiazol-4-yl)-2-isopropoxyiminoacetamido]-3-(5,6-dihydroxy-2-methyl-2-isoindolinium) methyl-3-cephem-4-carboxylate]	3.12 µg/mL (≈ 5.3 µM)	≤ 0.05 µg/mL	at least 32 times	at least 32 times	0.39 µg/mL (≈ 0.663 µM)	at least 16 times	≤ 0.05 µg/mL	3.12 µg/mL (≈ 5.3 µM)	0.2 µg/mL (≈ 0.34 µM)	≤ 0.05 µg/mL	0.1 µg/mL (≈ 0.17 µM)	≤ 0.05 µg/mL	≤ 0.05 µg/mL	0.1 µg/mL (≈ 0.17 µM)	≤ 0.05 µg/mL	0.1 µg/mL (≈ 0.17 µM)	12.5 µg/mL (≈ 21.2 µM)	at least 32 times	0.2 µg/mL (≈ 0.34 µM)	≤ 0.05 µg/mL	antibacterial activity relative to the compound of Reference Example (P. maltophilia IID 1275): at least twice as strong; MIC (S. aureus NIHJJC-1): 6.25 µg/mL (≈ 10.6 µM); MIC (E. coli W3630/Rms212): ≤ 0.05 µg/mL; MIC (K. pneumoniae No. 42): 0.1 µg/mL (≈ 0.17 µM); MIC (S. marcescens No. 16-2): 0.78 µg/mL (≈ 1.33 µM); MIC (E. coli W3630/Rms213): ≤ 0.05 µg/mL; antibacterial activity (in words) [1]: particularly strong antibacterial activities
